Reference: ChEMBL document CHEMBL1143295, “Discovery of potent inhibitors of interleukin-2 inducible T-cell kinase (ITK) through structure-based drug design” (Bioorg Med Chem Lett, 2009)

Assays:
[1] = Selectivity ratio of IC50 for IRK to IC50 for ITK
Insulin receptor = Insulin receptor (Homo sapiens, UniProt P06213); assay: Inhibition of IRK
[2] = biological target: T1, Tyrosine-protein kinase ITK/TSK (Homo sapiens, UniProt Q08881); assay: Inhibition of ITK by DELFIA method
T1 sequence (Q08881 whole entry): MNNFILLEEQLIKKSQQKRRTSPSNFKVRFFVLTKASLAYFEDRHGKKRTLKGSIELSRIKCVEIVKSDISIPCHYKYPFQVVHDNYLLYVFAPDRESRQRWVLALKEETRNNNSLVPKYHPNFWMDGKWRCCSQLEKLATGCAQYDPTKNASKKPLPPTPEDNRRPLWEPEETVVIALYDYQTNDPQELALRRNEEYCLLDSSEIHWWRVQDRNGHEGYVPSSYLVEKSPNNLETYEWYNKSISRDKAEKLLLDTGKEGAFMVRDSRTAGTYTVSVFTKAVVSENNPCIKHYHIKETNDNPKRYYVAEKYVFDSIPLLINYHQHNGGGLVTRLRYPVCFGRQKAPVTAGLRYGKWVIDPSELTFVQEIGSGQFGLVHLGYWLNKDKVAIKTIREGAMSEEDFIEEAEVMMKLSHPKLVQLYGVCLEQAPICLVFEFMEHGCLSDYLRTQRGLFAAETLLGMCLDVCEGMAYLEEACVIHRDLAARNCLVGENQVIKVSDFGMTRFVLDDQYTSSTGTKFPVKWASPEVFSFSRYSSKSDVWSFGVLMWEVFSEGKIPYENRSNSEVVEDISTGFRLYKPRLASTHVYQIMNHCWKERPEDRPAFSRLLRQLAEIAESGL

[3] = biological target: T1, Tyrosine-protein kinase ITK/TSK; assay: Inhibition of human ITK expressed in chicken DT40 cells assessed as calcium influx by FLIPR; assay type: cell-based

Sequence of Insulin receptor (P06213 28-758 limits assumed): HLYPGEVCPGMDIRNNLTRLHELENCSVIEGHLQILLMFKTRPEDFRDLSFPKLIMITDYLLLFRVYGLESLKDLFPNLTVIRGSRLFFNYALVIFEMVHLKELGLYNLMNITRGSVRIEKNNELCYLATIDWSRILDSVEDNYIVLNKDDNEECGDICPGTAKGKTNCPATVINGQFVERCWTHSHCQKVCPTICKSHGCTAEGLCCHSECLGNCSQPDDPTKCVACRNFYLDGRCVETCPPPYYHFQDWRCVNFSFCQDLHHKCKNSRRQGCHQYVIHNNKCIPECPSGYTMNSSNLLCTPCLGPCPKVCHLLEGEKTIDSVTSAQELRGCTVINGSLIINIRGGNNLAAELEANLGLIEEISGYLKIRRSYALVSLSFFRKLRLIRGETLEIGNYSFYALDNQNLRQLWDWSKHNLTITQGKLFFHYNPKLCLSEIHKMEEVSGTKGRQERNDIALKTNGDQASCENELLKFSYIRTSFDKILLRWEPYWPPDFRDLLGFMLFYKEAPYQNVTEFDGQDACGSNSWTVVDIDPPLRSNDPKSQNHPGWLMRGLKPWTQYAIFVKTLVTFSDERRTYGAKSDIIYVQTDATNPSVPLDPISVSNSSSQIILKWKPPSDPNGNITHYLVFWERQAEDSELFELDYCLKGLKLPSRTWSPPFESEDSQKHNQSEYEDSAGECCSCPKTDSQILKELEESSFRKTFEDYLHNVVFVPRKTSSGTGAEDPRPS
Sequence of Insulin receptor (P06213 763-1382 limits assumed): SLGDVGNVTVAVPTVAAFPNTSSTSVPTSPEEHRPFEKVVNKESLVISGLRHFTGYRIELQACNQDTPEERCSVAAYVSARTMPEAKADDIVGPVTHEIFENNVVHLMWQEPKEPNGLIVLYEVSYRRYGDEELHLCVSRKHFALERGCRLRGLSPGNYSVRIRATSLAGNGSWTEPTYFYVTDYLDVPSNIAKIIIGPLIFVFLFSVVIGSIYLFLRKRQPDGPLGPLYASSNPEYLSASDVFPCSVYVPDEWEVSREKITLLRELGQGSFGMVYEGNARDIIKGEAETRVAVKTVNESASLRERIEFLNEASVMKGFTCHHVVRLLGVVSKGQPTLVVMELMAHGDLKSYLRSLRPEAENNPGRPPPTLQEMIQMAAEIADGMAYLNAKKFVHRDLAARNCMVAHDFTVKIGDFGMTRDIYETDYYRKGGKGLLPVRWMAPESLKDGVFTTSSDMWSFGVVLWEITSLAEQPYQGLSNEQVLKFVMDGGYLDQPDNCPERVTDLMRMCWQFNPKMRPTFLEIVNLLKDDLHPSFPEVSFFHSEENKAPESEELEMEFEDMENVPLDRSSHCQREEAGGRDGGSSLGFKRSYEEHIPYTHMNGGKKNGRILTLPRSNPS

Compound | Ratio IC50 [1] | IC50 (Insulin receptor) | IC50 [2] | IC50 [3]
CN(C(=O)c1ccccc1)c1ccc2c(c1)[nH]/c(=N\C(=O)c1cocn1)n2CCC(N)=O | > 1000 | – | – | –
CN(C(=O)c1ccccc1)c1ccc2c(c1)nc(NC(=O)c1ccc(C#N)cc1)n2CCC(N)=O | – | > 6 µM | – | –
CN(C(=O)c1ccccc1)c1ccc2c(c1)nc(NC(=O)c1ccc(-c3nccs3)s1)n2CCC(N)=O | – | > 6 µM | – | –
CN(C(=O)c1ccccc1)c1ccc2c(c1)nc(NC(=O)c1ccc3ccccc3c1)n2CCC(N)=O | – | > 6 µM | – | –
CN(C(=O)c1ccccc1)c1ccc2c(c1)[nH]/c(=N\C(=O)c1ccc(-c3cncc(C#N)c3)s1)n2CCC(N)=O | – | > 6 µM | – | –
CN(C(=O)c1ccccc1)c1ccc2c(c1)[nH]/c(=N\C(=O)c1cccc(-c3ccccc3)c1)n2CCC(N)=O | – | > 6 µM | – | –
CN(C(=O)c1ccccc1)c1ccc2c(c1)nc(NC(=O)c1ccc(Br)cc1)n2CCC(N)=O | – | > 6 µM | – | –
CN(C(=O)c1ccccc1)c1ccc2c(c1)[nH]/c(=N\C(=O)c1ccc(-c3cccnc3)s1)n2CCC(N)=O | – | > 6 µM | – | –
CC(=O)c1ccc(C(=O)Nc2nc3cc(N(C)C(=O)c4ccccc4)ccc3n2CCC(N)=O)s1 | – | > 6 µM | – | –
CN(C(=O)c1ccccc1)c1ccc2c(c1)nc(NC(=O)c1ccc(-c3cocn3)s1)n2CCC(N)=O | – | > 6 µM | – | –
CN(C(=O)c1ccccc1)c1ccc2c(c1)nc(NC(=O)c1ccc(C(=O)c3ccccc3)s1)n2CCC(N)=O | – | > 6 µM | – | –
CN(C(=O)c1ccccc1)c1ccc2c(c1)[nH]/c(=N\C(=O)c1ccc(-c3ccc(C#N)nc3)s1)n2CCC(N)=O | – | > 6 µM | – | –
CN(C(=O)c1ccccc1)c1ccc2c(c1)[nH]/c(=N\C(=O)c1cnco1)n2CCC(N)=O | > 1000 | > 6 µM | 0.18 µM | > 5 µM
CN(C(=O)c1ccccc1)c1ccc2c(c1)[nH]/c(=N\C(=O)c1ccc(-c3ccccc3)cc1)n2CCC(N)=O | – | > 6 µM | – | –
CN(C(=O)c1ccccc1)c1ccc2c(c1)[nH]/c(=N\C(=O)c1ccc(-c3cnccn3)s1)n2CCC(N)=O | – | > 6 µM | – | –
CN(C(=O)c1ccccc1)c1ccc2c(c1)nc(NC(=O)c1ccno1)n2CCC(N)=O | – | > 6 µM | – | –
CC(C)C(=O)c1ccc(C(=O)Nc2nc3cc(N(C)C(=O)c4ccccc4)ccc3n2CCC(N)=O)s1 | – | > 6 µM | – | –
CN(C(=O)c1ccccc1)c1ccc2c(c1)nc(NC(=O)c1ccc(-c3ccnc(F)c3)s1)n2CCC(N)=O | – | > 6 µM | – | –
CN(C(=O)c1ccccc1)c1ccc2c(c1)[nH]/c(=N\C(=O)c1ncco1)n2CCC(N)=O | – | > 6 µM | – | –
CN(C(=O)c1ccccc1)c1ccc2c(c1)nc(NC(=O)c1ccc(-c3ccnc(C#N)c3)s1)n2CCC(N)=O | – | > 6 µM | – | –
CN(C(=O)c1ccccc1)c1ccc2c(c1)[nH]/c(=N\C(=O)c1ccc(-c3ccccc3)s1)n2CCC(N)=O | – | > 6 µM | – | –
CN(C(=O)c1ccccc1)c1ccc2c(c1)[nH]/c(=N\C(=O)c1ccc(-c3ccccn3)s1)n2CCC(N)=O | – | > 6 µM | – | –
CN(C(=O)c1ccccc1)c1ccc2c(c1)nc(NC(=O)c1cocn1)n2CCC(N)=O | – | > 6 µM | 0.17 µM | > 5 µM

Continued, values first:

Ratio IC50 [1] | IC50 (Insulin receptor) | IC50 [2] | IC50 [3] | Compound
– | > 6 µM | – | – | CN(C(=O)c1ccccc1)c1ccc2c(c1)[nH]/c(=N\C(=O)c1ccc(-c3ncco3)s1)n2CCC(N)=O
– | > 6 µM | 0.17 µM | > 5 µM | COc1ccc(C(=O)Nc2nc3cc(N(C)C(=O)c4ccccc4)ccc3n2CCC(N)=O)cc1
– | > 6 µM | – | – | CN(C(=O)c1ccccc1)c1ccc2c(c1)nc(NC(=O)c1ccc(-c3ccc(F)nc3)s1)n2CCC(N)=O
– | > 6 µM | – | – | CN(C(=O)c1ccccc1)c1ccc2c(c1)[nH]/c(=N\C(=O)c1ccc(N3CCCC3)s1)n2CCC(N)=O
– | > 6 µM | – | – | CN(C(=O)c1ccccc1)c1ccc2c(c1)nc(NC(=O)c1ccc(Oc3ccccc3)s1)n2CCC(N)=O
– | > 6 µM | – | – | CN(C(=O)c1ccccc1)c1ccc2c(c1)[nH]/c(=N\C(=O)c1ccc(N3CCCCC3)s1)n2CCC(N)=O
– | > 6 µM | – | – | CN(C(=O)c1ccccc1)c1ccc2c(c1)[nH]/c(=N\C(=O)c1ccc(-c3ccncc3)s1)n2CCC(N)=O
– | > 6 µM | 0.074 µM | > 3.2 µM | CN(C(=O)c1ccccc1)c1ccc2c(c1)nc(NC(=O)c1ccc(N3CCOCC3)s1)n2CCC(N)=O
– | > 6 µM | – | – | CN(C(=O)c1ccccc1)c1ccc2c(c1)nc(NC(=O)c1ccc(OCc3ccccc3)s1)n2CCC(N)=O
– | > 6 µM | 0.15 µM | > 3.2 µM | CN(C(=O)c1ccccc1)c1ccc2c(c1)nc(NC(=O)c1ccc(N3CCNCC3)s1)n2CCC(N)=O
– | > 6 µM | – | – | CN(C(=O)c1ccccc1)c1ccc2c(c1)[nH]/c(=N\C(=O)c1ccc(-c3csc(N)n3)s1)n2CCC(N)=O
– | 0.63 µM | 0.015 µM | 0.1 µM | CN(C(=O)c1ccccc1)c1ccc2c(c1)nc(NC(=O)c1ccc(Br)s1)n2CCC(N)=O
– | 5.8 µM | – | – | CN(C(=O)c1ccccc1)c1ccc2c(c1)[nH]/c(=N\C(=O)c1cccc3ccccc13)n2CCC(N)=O
– | 0.24 µM | – | – | CN(C(=O)c1ccccc1)c1ccc2c(c1)nc(NC(=O)c1ccsc1)n2CCC(N)=O
– | 6.1 µM | 0.34 µM | > 5 µM | CN(C(=O)c1ccccc1)c1ccc2c(c1)nc(NC(=O)c1cscn1)n2CCC(N)=O
– | 1.6 µM | 0.13 µM | > 5 µM | CN(C(=O)c1ccccc1)c1ccc2c(c1)[nH]/c(=N\C(=O)c1cncs1)n2CCC(N)=O
